Values of other authors, collected in PMC12428582, “2-Styrylquinolines with Push-Pull Architectures as Sensors for β-Amyloid Aggregation with Theranostic Properties” (International Journal of Molecular Sciences, 2025).

Tested on: Aβ42
Set-up: method as in PMID 24900645
Settings: ThT-based fluorometric assay; cited from earlier work

## Cc1ccc2nc(/C=C/c3ccc(N)cc3)ccc2c1 [A]
  Inhibition of Aβ42 aggregation: moderate fibrillization inhibitor and amyloid binder
